As usually defined, the Ki is the dissociation constant of the complex between target and ligand, obtained from inhibition or displacement.

Structures are written as SMILES.

In assay [1] the target is Cy5-labelled Mcl1 (amino acids 171-321) C286S protein (UniProtKB Q07820) (Homo sapiens (Human), UniProt Q07820, C286S). The experiment in a line: Inhibition of Mcl-1 by the fluorescence quenching assay (Example A, Method B). In kind it is binding. Put shortly: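 Cy5-labelled Mcl1 171-321 C286S (1 nM) quenched by TQ5WS-labelled PUMA peptide (10, 20 or 400 nM); displacement raises fluorescence (Ex 620/Em 680 nm). Buffer 10 mM HEPES, 150 mM NaCl, 0.05% Tween 20, pH 7.4, 5% DMSO; 2 h at room temperature, 11-point curves, IC50 converted to Ki (cKi/eKi).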
Chain of Cy5-labelled Mcl1 (amino acids 171-321) C286S protein (Q07820 171-321 C286S): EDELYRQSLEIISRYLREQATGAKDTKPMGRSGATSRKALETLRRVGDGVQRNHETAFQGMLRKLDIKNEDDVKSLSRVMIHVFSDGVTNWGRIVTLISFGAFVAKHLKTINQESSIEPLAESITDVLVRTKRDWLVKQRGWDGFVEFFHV

For another assay, the system named is NCI-H929 cell lines. The experiment in a line: In vitro cytotoxicity, CellTiter-Glo (CTG) assay (Example B, Method B). In kind it is cell-based. The following applies: Homo sapiens, NCI-H929, 48 h, NCI-H929 cells, 48 h incubation, read-out: C50. The procedure, abridged:
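NCI-H929 cells exposed to an 11-point compound series from 10 mM DMSO stocks (top final 30 μM) for 48 h at 37° C., 5% CO2. Viability measured as ATP by CellTiter-Glo luminescence; C50 is the concentration giving 50% cellular viability.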
(In ATP-based viability assays light output follows the ATP content of the culture.)

The subject of assay [2] is AMO-1 multiple myeloma xenografts. The experiment in a line: Anti-tumor activity in vivo (Example D). Details: species or system SCID mice. As for the experimental part: The anti-tumor activity of the compounds of the invention was evaluated using AMO-1 multiple myeloma xenografts.
1×10^7 cells were subcutaneously grafted into immunosuppressed SCID mice. 7-10 days later, when the tumor mass had reached an average volume of about 150 mm^3, mice were treated with the various compounds once a week for 2 weeks (per os, HEC 1%/Tween 80 99:1). Tumor size was measured three times per week using electronic calipers.
At the end of the treatment cycle (d9), tumor growth inhibition (TGI) was calculated using the formula: […]
wherein DTV (Delta Tumor Volume) at Dx was calculated as follows: […]
(Tumor Volume at Dx)−(Tumor Volume at Randomization).

In assay [3] the test system is AMO-1 multiple myeloma xenograft. The experiment in a line: Quantification of the cleaved form of PARP in vivo, IV (Example E). Details: species or system SCID mice. The settings on record: single dose. Here is the method: (§1) The ability of the compounds of the invention to induce apoptosis was evaluated in vivo using the AMO-1 multiple myeloma xenograft.
1×10^7 cells were subcutaneously grafted into immunosuppressed SCID mice. 12-14 days later, when tumors had reached the appropriate volume, mice (3 per group) were treated once with the various compounds (IV). Tumor samples were recovered 6 or 16 hours after dosing and lysed. Cleared lysates were used for cleaved PARP quantification (as a marker of apoptosis induction) using the Meso Scale Discovery (MSD) Elisa platform test. Results are expressed as the ratio between cleaved PARP in treated mice over control mice.

For assay [4] the test system is unchanged. The experiment in a line: Quantification of the cleaved form of PARP in vivo, per os (Example C). The settings on record: single dose per os, tumors recovered 16 hours after dosing. Details: species or system SCID mice. Here is the method:
as §1
1×10^7 cells were subcutaneously grafted into immunosuppressed SCID mice. 12-14 days later, when tumors had reached the appropriate volume, mice (3 per group) were treated once with the various compounds (per os, HEC 1%/Tween 80 99:1). Tumor samples were recovered 16 hours after dosing and lysed. Cleared lysates were used for cleaved PARP quantification (as a marker of apoptosis induction) using the Meso Scale Discovery (MSD) Elisa platform test. Results are expressed as the ratio between cleaved PARP in treated mice over control mice.

[5] abbreviates: 30 mpk per os once a week for 2 weeks.
Setting [6] is: 60 mpk per os once a week for 2 weeks.

Take `CCOc1ccc2c(c1)[C@]1(CC[C@@](Nc3cccc(Cl)c3)(C(=O)O)CC1)[C@@H](C[C@@H](C)COc1ccnc3c1[C@H](C)CCC3)C2` [Example 784, (1r,2′S,4S)-4-(3-chloroanilino)-6′-ethoxy-2′-[(2R)-2-methyl-3-{[(5R)-5-methyl-5,6,7,8-tetrahydroquinolin-4-yl]oxy}propyl]-2′,3′-dihydrospiro[cyclohexane-1,1′-indene]-4-carboxylic acid]: the Ki in assay [1] came to 0.0801 nM. The IC50 in the assay with NCI-H929 cell lines came out at 106 nM. Moreover, the “% TGI (d9)” value in assay [2] (setting [5]) is listed as 103.6%; in assay [2] (setting [6]), 112%. Moreover, the “Cleaved PARP (fold to control)” value in assay [3] (15 mpk IV, time-point 6 h) is given as 227.5 fold to control; in assay [3] (30 mpk IV, time-point 6 h), 174.2 fold to control; in assay [3] (30 mpk IV, time-point 16 h) it was 129.9 fold to control.

Consider `C[C@@H](COc1ccnc2c1[C@H](C)CCC2)C[C@H]1Cc2cc3c(cc2[C@]12CC[C@@](Nc1cccc(Cl)c1)(C(=O)O)CC2)OCO3` [Example 840, (1r,4S,6′S)-4-(3-chloroanilino)-6′-[(2R)-2-methyl-3-{[(5R)-5-methyl-5,6,7,8-tetrahydroquinolin-4-yl]oxy}propyl]-6′,7′-dihydro-2′H-spiro[cyclohexane-1,5′-indeno[5,6-d][1,3]dioxole]-4-carboxylic acid], for which the Ki in assay [1] was determined as 0.0554 nM. Further, the IC50 in the assay on NCI-H929 cell lines is 30.5 nM. Besides, the “Cleaved PARP (fold to control)” value is on record as 19.2 fold to control in assay [4] (30 mpk); 29.4 fold to control in assay [4] (60 mpk); 127.8 fold to control in assay [3] (15 mpk IV, time-point 6 h); 166.3 fold to control in assay [3] (30 mpk IV, time-point 6 h); 138.2 fold to control in assay [3] (30 mpk IV, time-point 16 h). Further, the “% TGI (d9)” value in assay [2] (setting [5]) was 83.8%; in assay [2] (setting [6]), 119.8%.

With `C[C@@H](COc1ccnc2c1[C@H](C)CCC2)C[C@H]1Cc2cc3c(cc2[C@]12CC[C@@](Nc1ccc(F)c(Cl)c1)(C(=O)O)CC2)OCO3` [Example 845, (1r,4S,6′S)-4-(3-chloro-4-fluoroanilino)-6′-[(2R)-2-methyl-3-{[(5R)-5-methyl-5,6,7,8-tetrahydroquinolin-4-yl]oxy}propyl]-6′,7′-dihydro-2′H-spiro[cyclohexane-1,5′-indeno[5,6-d][1,3]dioxole]-4-carboxylic acid], in assay [1], the Ki was 0.0736 nM. In addition, in the assay on NCI-H929 cell lines, the IC50 was determined as 38.3 nM. Besides, the “% TGI (d9)” value stood at 88.2% in assay [2] (setting [5]) and 128.3% in assay [2] (setting [6]). Moreover, the “Cleaved PARP (fold to control)” value was 188.7 fold to control in assay [3] (15 mpk IV, time-point 6 h); 158.2 fold to control in assay [3] (30 mpk IV, time-point 6 h); 116.4 fold to control in assay [3] (30 mpk IV, time-point 16 h).

In the case of `Cc1c(Cl)cccc1N[C@]1(C(=O)O)CC[C@]2(CC1)c1cc3c(cc1C[C@@H]2C[C@@H](C)COc1ccnc2c1[C@H](C)CCC2)OCO3` [Example 847, (1r,4S,6′S)-4-(3-chloro-2-methylanilino)-6′-[(2R)-2-methyl-3-{[(5R)-5-methyl-5,6,7,8-tetrahydroquinolin-4-yl]oxy}propyl]-6′,7′-dihydro-2′H-spiro[cyclohexane-1,5′-indeno[5,6-d][1,3]dioxole]-4-carboxylic acid], the Ki in assay [1] came to 0.0847 nM. Moreover, in the assay on NCI-H929 cell lines, the IC50 is 64.3 nM. Further, the “Cleaved PARP (fold to control)” value in assay [3] (7.5 mpk IV, time-point 6 h) is 185.9 fold to control; in assay [3] (15 mpk IV, time-point 6 h), 215 fold to control.

For the compound `Cc1cc2c(cc1C)[C@]1(CC[C@@](Nc3cccc(Cl)c3)(C(=O)O)CC1)[C@@H](C[C@@H](C)COc1ccnc3c1[C@H](C)CCC3)C2` [Example 854, (1r,2′S,4S)-4-(3-chloroanilino)-5′,6′-dimethyl-2′-[(2R)-2-methyl-3-{[(5R)-5-methyl-5,6,7,8-tetrahydroquinolin-4-yl]oxy}propyl]-2′,3′-dihydrospiro[cyclohexane-1,1′-indene]-4-carboxylic acid], in assay [1], the inhibitory constant (Ki) stood at 0.455 nM. Besides, in the assay on NCI-H929 cell lines, the IC50 was determined as 147 nM. For the same compound, the figures for the “Cleaved PARP (fold to control)” value in assay [4] (30 mpk), in assay [4] (60 mpk) and in assay [4] (120 mpk) were 6.9 fold to control, 26.4 fold to control and 29.1 fold to control, respectively. The entries for the “% TGI (d9)” value in assay [2] (setting [5]), in assay [2] (setting [6]) and in assay [2] (120 mpk per os once a week for 2 weeks) were 32%, 95.2% and 111.8%, respectively.

With `COCc1ccc2c(c1)[C@]1(CC[C@@](Nc3cccc(Cl)c3)(C(=O)O)CC1)[C@@H](C[C@@H](C)COc1ccnc3c1[C@H](C)CCC3)C2` [Example 919, (1r,2′S,4S)-4-(3-chloroanilino)-6′-(methoxymethyl)-2′-[(2R)-2-methyl-3-{[(5R)-5-methyl-5,6,7,8-tetrahydroquinolin-4-yl]oxy}propyl]-2′,3′-dihydrospiro[cyclohexane-1,1′-indene]-4-carboxylic acid], the inhibitory constant (Ki) in assay [1] came out at 0.0267 nM. For the same compound, the IC50 in the assay on NCI-H929 cell lines turned out to be 38.9 nM. In addition, the “Cleaved PARP (fold to control)” value is 6.7 fold to control in assay [4] (30 mpk); 9.7 fold to control in assay [4] (60 mpk); 185.6 fold to control in assay [3] (15 mpk IV, time-point 6 h); 199.9 fold to control in assay [3] (30 mpk IV, time-point 6 h); 69.7 fold to control in assay [3] (30 mpk IV, time-point 16 h). In addition, the “% TGI (d9)” value in assay [2] (setting [6]) was 121%.

The values are drawn from patent US20240150293A1, “SPIROCYCLOHEXANE DERIVATIVES, PHARMACEUTICAL COMPOSITIONS CONTAINING THEM AND THEIR USES AS ANTI-APOPTOTIC INHIBITORS” (LES LABORATOIRES SERVIER, priority 2021, published 2024).
